According to patent US10286056B2, “Adjuvant nanoemulsions with crystallisation inhibitors” (GLAXOSMITHKLINE BIOLOGICALS S.A., priority 2011, dated 2019):

Assay: log P (partition coefficient in 1-octanol and water)
Format: physicochemical
Details: 1-octanol/water, pH 7.4
Excerpt: Emulsions of the invention are useful for formulating lipophilic pharmacological agents (LPAs) for in vivo use. Such LPAs include, but are not limited to, vitamins (e.g. vitamins A, D, E and K and their salts/esters, such as α-tocopherol succinate), carotenoids (e.g. β-carotene), fatty acids (e.g. arachidonic acid, ecosapentaenoic acid docosahexaenoic acid), pyrimidines (e.g. 5-hydroxy-4,6-dimethyl-2-(6-phenylhexyl)aminopyrimidine), ansamitocins, angiotensin II receptor antagonists (e.g. candesartan cilexetil), and immunopotentiators (e.g. muramyl dipeptides).
For example, to deliver a 25 μg dose in a typical oil-in-water emulsion would require the agonist to have a squalene solubility of 10 mg/ml, which is about 2.5× higher than can be achieved.

- logP: 7.5
SMILES: Cc1ccc2c(c1)nc(N)c1ncc(CCc3ccc(OCCC(C)C)cc3C)cc12 [compound ‘A’]
